Measured values taken from ChEMBL document CHEMBL5321275, “Discovery, Optimization, and Evaluation of Novel N-(Benzimidazol-5-yl)-1,3,4-thiadiazol-2-amine Analogues as Potent STAT3 Inhibitors for Cancer Treatment” (J Med Chem, 2023).
Calls of active or inactive are those of the source. The calls are words filed in the database; no cut-off is given here.

Experiments:
HEK-Blue IL-6 = experiment: Inhibition of IL-6/JAK/STAT3 signalling pathway in HEK-Blue IL-6 cells at 10 uM incubated for 16 hrs by QUANTI-blue assay relative to control; format: cell-based; details: Homo sapiens
[1] = Inhibition of IL-6/JAK/STAT3 signalling pathway in HEK-Blue IL-6 cells incubated for 16 hrs by QUANTI-blue assay; format: cell-based; details: Homo sapiens, HEK-Blue IL-6, 16 h
DU-145 [2] = experiment: Antiproliferative activity against human DU-145 cells assessed as inhibition of cell growth at 10 uM measured after 96 hrs by MTT assay relative to control; format: functional
MDA-MB-231 [3] = experiment: Antiproliferative activity against human MDA-MB-231 cells assessed as inhibition of cell growth at 10 uM measured after 96 hrs by MTT assay relative to control; format: functional
MDA-MB-231 [4] = experiment: Antiproliferative activity against human MDA-MB-231 cells assessed as inhibition of cell growth measured after 96 hrs by MTT assay; format: functional, cell-based; details: MDA-MB-231, 96 h
PANC-1 = experiment: Antiproliferative activity against human PANC-1 cells assessed as inhibition of cell growth measured after 96 hrs by MTT assay; format: functional, cell-based; details: PANC-1, 96 h
[5] = Metabolic stability in mouse liver microsomes assessed as intrinsic clearance in presence of NADPH/UDPGA; format: ADME, Microsome; details: read-out: CLH
[6] = biological target: Tyrosine-protein kinase JAK2 (Homo sapiens) (UniProt O60674); experiment: Inhibition of JAK2 phosphorylation in human DU-145 cells at 10 uM measured after 24 hrs by Western blot analysis; format: cell-based
[7] = biological target: T1, Signal transducer and activator of transcription 1-alpha/beta (Homo sapiens) (UniProt P42224); experiment: Inhibition of STAT1 phosphorylation in human DU-145 cells at 10 uM measured after 24 hrs by Western blot analysis; format: cell-based
T1 sequence (whole entry): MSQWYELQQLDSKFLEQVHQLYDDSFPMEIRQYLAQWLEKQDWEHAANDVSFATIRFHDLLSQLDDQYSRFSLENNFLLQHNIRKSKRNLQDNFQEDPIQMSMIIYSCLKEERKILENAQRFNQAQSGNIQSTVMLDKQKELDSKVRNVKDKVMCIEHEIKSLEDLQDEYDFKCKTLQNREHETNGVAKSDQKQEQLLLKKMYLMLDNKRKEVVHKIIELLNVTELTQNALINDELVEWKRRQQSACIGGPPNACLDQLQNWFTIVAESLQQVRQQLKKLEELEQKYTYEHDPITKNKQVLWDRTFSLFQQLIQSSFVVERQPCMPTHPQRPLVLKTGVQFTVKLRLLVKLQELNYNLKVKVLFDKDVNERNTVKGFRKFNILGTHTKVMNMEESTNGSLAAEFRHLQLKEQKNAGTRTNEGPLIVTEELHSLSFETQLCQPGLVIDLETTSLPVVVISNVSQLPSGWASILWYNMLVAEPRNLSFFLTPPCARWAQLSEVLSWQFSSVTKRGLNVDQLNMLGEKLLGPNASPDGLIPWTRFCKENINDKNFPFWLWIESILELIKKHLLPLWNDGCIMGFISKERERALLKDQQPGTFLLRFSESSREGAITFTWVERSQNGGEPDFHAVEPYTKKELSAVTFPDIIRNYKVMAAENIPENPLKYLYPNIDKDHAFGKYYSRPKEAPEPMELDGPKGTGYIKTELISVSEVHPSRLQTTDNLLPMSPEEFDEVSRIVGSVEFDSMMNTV

[8] = biological target: T2, Signal transducer and activator of transcription 3 (Homo sapiens, UniProt P40763); experiment: Binding affinity to STAT3 (unknown origin) assessed as conformational change in STAT3 protein measured after 1 hr by circular dichroism method
[9] = biological target: T2, Signal transducer and activator of transcription 3; experiment: Inhibition of STAT3 dimerization in human DU-145 cells assessed as increase in amount of STAT3 monomer at upto 10 uM measured after 12 hrs; format: cell-based
MDA-MB-231 [10] = experiment: Induction of cell cycle arrest in human MDA-MB-231 cells assessed as accumulation of cells at G0/G1 phase measured after 24 hrs by PI staining based flow cytometry analysis; format: functional; details: dose <= 10.0 µM
MDA-MB-231 [11] = experiment: Induction of apoptosis in human MDA-MB-231 cells assessed as early apoptotic cells at 5 uM measured after 48 hrs by annexin V-FITC and PI staining based flow cytometry analysis (reference value: 6.7%); format: functional
MDA-MB-231 [12] = experiment: Induction of apoptosis in human MDA-MB-231 cells assessed as early apoptotic cells at 10 uM measured after 48 hrs by annexin V-FITC and PI staining based flow cytometry analysis (reference value: 6.7%); format: functional
MDA-MB-231 [13] = experiment: Induction of apoptosis in human MDA-MB-231 cells assessed as late apoptotic cells at 10 uM measured after 48 hrs by annexin V-FITC and PI staining based flow cytometry analysis (reference value: 3.1%); format: functional
MDA-MB-231 [14] = experiment: Induction of apoptosis in human MDA-MB-231 cells measured after 48 hrs by annexin V-FITC and PI staining based flow cytometry analysis; format: functional, cell-based; details: dose <= 10.0 µM
DU-145 [15] = experiment: Induction of apoptosis in human DU-145 cells assessed as induction of PARP cleavage at upto 10 uM measured after 48 hrs by […]; format: functional, cell-based
[16] = Drug concentration in ICR mouse plasma at 5 mg/kg, iv measured at 2 mins; format: ADME, organism-based
[17] = AUC (0 to t) in ICR mouse at 50 mg/kg, po measured upto 96 hrs by HPLC-MS/MS analysis; format: ADME, organism-based; parameters: dose 50 mg/kg, time < 96 hrs, route po; details: in vivo
[18] = AUC (0 to infinity) in ICR mouse at 50 mg/kg, po measured upto 96 hrs by HPLC-MS/MS analysis; format: ADME, organism-based; parameters: time < 96 hrs, dose 50 mg/kg, route po; details: in vivo
[19] = Half life in ICR mouse at 50 mg/kg, po measured upto 96 hrs by HPLC-MS/MS analysis; format: ADME, organism-based; details: in vivo
[20] = Tmax in ICR mouse at 50 mg/kg, po measured upto 96 hrs by HPLC-MS/MS analysis; format: ADME, organism-based; details: in vivo
[21] = Cmax in ICR mouse at 50 mg/kg, po measured upto 96 hrs by HPLC-MS/MS analysis; format: ADME, organism-based; parameters: time < 96 hrs, dose 50 mg/kg, route po; details: in vivo
[22] = MRT (0 to t) in ICR mouse at 5 mg/kg, iv measured upto 96 hrs by HPLC-MS/MS analysis; format: ADME, organism-based; details: in vivo

T2 sequence (P40763 whole entry): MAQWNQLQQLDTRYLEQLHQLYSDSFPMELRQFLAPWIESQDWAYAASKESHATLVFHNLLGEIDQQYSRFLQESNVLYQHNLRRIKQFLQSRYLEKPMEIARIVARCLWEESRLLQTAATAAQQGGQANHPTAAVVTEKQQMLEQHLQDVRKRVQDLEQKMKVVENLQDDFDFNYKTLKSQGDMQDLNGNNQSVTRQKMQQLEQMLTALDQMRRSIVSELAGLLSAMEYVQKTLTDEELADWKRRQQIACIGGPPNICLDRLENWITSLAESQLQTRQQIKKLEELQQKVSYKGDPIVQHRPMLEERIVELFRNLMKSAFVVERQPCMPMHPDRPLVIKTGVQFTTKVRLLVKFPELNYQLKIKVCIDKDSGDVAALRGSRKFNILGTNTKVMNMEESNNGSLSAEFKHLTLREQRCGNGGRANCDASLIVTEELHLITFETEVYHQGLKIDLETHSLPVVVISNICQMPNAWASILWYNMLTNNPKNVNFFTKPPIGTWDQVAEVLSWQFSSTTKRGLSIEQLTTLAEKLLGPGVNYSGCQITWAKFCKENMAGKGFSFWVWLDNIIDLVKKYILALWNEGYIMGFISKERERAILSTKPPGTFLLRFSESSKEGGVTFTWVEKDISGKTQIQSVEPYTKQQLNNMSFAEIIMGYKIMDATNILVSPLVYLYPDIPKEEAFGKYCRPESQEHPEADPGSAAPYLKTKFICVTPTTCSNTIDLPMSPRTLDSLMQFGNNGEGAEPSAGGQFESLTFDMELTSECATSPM
Sequence of Tyrosine-protein kinase JAK2 (Homo sapiens) (O60674 whole entry): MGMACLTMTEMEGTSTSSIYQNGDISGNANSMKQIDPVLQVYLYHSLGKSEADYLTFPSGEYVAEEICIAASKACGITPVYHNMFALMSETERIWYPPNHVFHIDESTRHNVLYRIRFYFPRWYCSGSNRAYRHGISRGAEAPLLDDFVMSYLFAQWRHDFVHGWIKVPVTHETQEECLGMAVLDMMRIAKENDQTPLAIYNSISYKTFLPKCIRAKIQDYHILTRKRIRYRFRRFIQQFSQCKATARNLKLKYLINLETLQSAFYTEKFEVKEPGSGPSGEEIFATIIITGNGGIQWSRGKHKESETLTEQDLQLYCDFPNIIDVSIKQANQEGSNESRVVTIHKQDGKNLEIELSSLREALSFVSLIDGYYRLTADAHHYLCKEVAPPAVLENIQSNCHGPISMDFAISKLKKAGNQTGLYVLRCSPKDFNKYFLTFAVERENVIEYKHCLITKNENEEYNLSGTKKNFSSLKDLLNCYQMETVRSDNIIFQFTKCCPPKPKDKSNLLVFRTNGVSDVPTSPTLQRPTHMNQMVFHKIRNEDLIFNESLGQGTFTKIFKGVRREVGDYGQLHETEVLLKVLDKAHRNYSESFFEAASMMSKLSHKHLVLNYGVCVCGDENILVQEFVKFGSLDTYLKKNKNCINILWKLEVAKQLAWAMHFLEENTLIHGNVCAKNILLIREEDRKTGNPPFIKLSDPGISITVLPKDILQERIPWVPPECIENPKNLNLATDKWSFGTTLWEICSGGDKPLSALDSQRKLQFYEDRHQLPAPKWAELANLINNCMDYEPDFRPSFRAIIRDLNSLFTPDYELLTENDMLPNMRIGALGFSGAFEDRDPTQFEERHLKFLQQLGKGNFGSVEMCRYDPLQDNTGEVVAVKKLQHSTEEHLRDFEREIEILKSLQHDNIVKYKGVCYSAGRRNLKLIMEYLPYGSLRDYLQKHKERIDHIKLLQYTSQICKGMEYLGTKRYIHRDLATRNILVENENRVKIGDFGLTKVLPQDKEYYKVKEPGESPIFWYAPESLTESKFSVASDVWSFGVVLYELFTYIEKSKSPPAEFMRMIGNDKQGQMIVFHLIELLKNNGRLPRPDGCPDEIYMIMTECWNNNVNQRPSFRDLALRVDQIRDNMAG

IC50 [1]: 650 nM | IC50 (MDA-MB-231 [4]): 3.26 µM | IC50 (PANC-1): 2430 nM | microsomal CLint [5]: 3.68 µL/min/mg | inhibition [6]: inactive | inhibition [7]: inactive | Activity [8]: Active | inhibition [9]: Active | concentration at 2 min [16]: 549 ng/mL | AUC(0-t) at 96 h [17]: 17800 ng·h/mL | AUC(0-inf) [18]: 17800 ng·h/mL | half-life [19]: 596 min | Tmax [20]: 4.67 h | Cmax [21]: 910 ng/mL | MRT last at 96 h [22]: 14.9 h
Structure (SMILES): CN1CCN(c2cc3c(cc2Nc2nnc(-c4ccc(C(F)(F)F)cc4)s2)nc(-c2ccc(F)cc2)n3C2CC2)CC1
inhibition (HEK-Blue IL-6): 101% | inhibition at 10 µM (DU-145 [2]): 92.7% | inhibition at 10 µM (MDA-MB-231 [3]): 90.1% | Activity (MDA-MB-231 [10]): Dose-Dependent Effect | Activity (MDA-MB-231 [11]): 12.1% | Activity (MDA-MB-231 [12]): 59.2% | Activity (MDA-MB-231 [13]): 20.1% | Activity (MDA-MB-231 [14]): Dose-Dependent Effect | Activity (DU-145 [15]): Active
